Active and inactive are the calls of the source. No cut-off for these calls is given here.
Key:
[1] = Cytotoxicity against mouse L929 cells assessed as reduction in cell viability
[2] = target: T1, Broad substrate specificity ATP-binding cassette transporter ABCG2 (Homo sapiens, UniProt Q9UNQ0); test: Inhibition of vanadate sensitive BCRP ATPase activity in human S1-M1-80 cell membranes preincubated for 30 mins followed by ATP addition and measured after 1 hr by colorimetric assay
T1 sequence (Q9UNQ0 whole entry): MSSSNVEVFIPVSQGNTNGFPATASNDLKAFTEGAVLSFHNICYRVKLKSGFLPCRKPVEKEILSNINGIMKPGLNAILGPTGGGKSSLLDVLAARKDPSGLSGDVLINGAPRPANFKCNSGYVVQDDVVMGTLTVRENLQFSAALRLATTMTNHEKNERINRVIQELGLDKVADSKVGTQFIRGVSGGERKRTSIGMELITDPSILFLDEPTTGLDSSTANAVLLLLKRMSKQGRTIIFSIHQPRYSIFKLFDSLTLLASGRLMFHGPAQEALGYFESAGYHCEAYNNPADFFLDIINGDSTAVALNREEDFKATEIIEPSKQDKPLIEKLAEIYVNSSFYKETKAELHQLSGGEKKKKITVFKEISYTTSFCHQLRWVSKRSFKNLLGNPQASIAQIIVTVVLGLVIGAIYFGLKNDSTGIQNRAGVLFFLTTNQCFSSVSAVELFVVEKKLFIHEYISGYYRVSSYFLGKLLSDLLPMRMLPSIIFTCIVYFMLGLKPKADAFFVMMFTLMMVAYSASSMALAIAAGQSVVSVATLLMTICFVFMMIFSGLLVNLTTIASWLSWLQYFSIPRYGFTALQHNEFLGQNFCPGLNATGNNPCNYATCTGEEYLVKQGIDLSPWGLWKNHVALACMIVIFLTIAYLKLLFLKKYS

[3] = target: T1, Broad substrate specificity ATP-binding cassette transporter ABCG2; test: Inhibition of BCRP (unknown origin) expressed in human HEK293/R2 cells assessed as increase in intracellular topotecan accumulation by measuring fold change at 1 uM after 120 mins in presence of topotecan by flow cytometry analysis relative to control; settings: 2 h
HEK293 [4] = test: Effect on intracellular topotecan level in human HEK293 cells at 5 uM up to 15 mins by flow cytometric analysis; type: functional, cell-based
NIH3T3 = test: Cytotoxicity against mouse 3T3 cells assessed as reduction in cell viability; type: cell-based
HFF-1 = test: Cytotoxicity against human HFF1 cells assessed as reduction in cell viability; type: cell-based
Homo sapiens = species on record: Homo sapiens; test: Effect on BCRP protein expression in human HEK293/R2 cells at 1 to 3 uM after 4 days by flow cytometric analysis; type: functional, cell-based
[5] = target: T1, Broad substrate specificity ATP-binding cassette transporter ABCG2; test: Inhibition of BCRP (unknown origin)
[6] = Antiproliferative activity against human LCC6 cells assessed as reduction in cell viability after 5 days by MTS/PMS assay; type: functional, cell-based; settings: LCC-6, 120 h
HEK293 [7] = test: Cytotoxicity against human HEK293 cells assessed as reduction in cell viability after 5 days by MTS/PMS assay; type: cell-based; settings: HEK293, 120 h
2008 = test: Antiproliferative activity against human 2008 cells assessed as reduction in cell viability after 5 days by MTS/PMS assay; type: functional, cell-based; settings: Homo sapiens, 2008, 120 h

| Compound | IC50 [1] [µM] | IC50 (NIH3T3) [µM] | IC50 (HFF-1) [µM] | also measured |
| --- | --- | --- | --- | --- |
| COC(=O)c1cccc(COc2c(-c3ccc(OCCOCCn4cc(-c5cccc(-c6cn(CCOCCOc7ccc(-c8oc9ccccc9c(=O)c8OCc8cccc(C(=O)OC)c8)cc7)nn6)c5)nn4)cc3)oc3ccccc3c2=O)c1 | > 100 | > 100 | > 100 | inhibition (INH) [2]: Dose-dependent effect; FC [3]: 11 to 12; Activity (HEK293 [4]): inactive; Activity (Homo sapiens): inactive |
| COC(=O)c1cccc(COc2c(-c3ccc(OCCOCCOCCn4cc(-c5ccc(-c6cn(CCOCCOCCOc7ccc(-c8oc9ccccc9c(=O)c8OCc8cccc(C(=O)OC)c8)cc7)nn6)cc5)nn4)cc3)oc3ccccc3c2=O)c1 | > 100 | > 100 | > 100 | – |
| COc1ccc2c3c([nH]c2c1)[C@H](CC(C)C)N1C(=O)[C@H](CCC(=O)OC(C)(C)C)NC(=O)[C@@H]1C3 | 31.4 | > 100 | 56.5 | – |
| COC(=O)c1cccc(COc2c(-c3ccc(OCCOCCOCCn4cc(-c5cccc(-c6cn(CCOCCOCCOc7ccc(-c8oc9ccccc9c(=O)c8OCc8cccc(C(=O)OC)c8)cc7)nn6)c5)nn4)cc3)oc3ccccc3c2=O)c1 | > 100 | > 100 | > 100 | – |
| COC(=O)c1cccc(COc2c(-c3ccc(OCCOCCOCCn4cc(CN(Cc5cn(CCOCCOCCOc6ccc(-c7oc8ccccc8c(=O)c7OCc7cccc(C(=O)OC)c7)cc6)nn5)c5ccccc5)nn4)cc3)oc3ccccc3c2=O)c1 | > 100 | > 100 | > 100 | – |
| COC(=O)c1cccc(COc2c(-c3ccc(OCCOCCn4cc(COCc5cn(CCOCCOc6ccc(-c7oc8ccccc8c(=O)c7OCc7cccc(C(=O)OC)c7)cc6)nn5)nn4)cc3)oc3ccccc3c2=O)c1 | > 100 | > 100 | > 100 | – |
| COC(=O)c1cccc(COc2c(-c3ccc(OCCOCCOCCn4cc(CN(Cc5ccccc5)Cc5cn(CCOCCOCCOc6ccc(-c7oc8ccccc8c(=O)c7OCc7cccc(C(=O)OC)c7)cc6)nn5)nn4)cc3)oc3ccccc3c2=O)c1 | > 100 | > 100 | > 100 | – |
| COc1ccc2c3c([nH]c2c1)[C@H](C=C(C)C)N1C(=O)[C@@H]2CCCN2C(=O)[C@@H]1C3 [FUMITREMORGIN] | – | – | – | EC50 [5]: 1 to 5 µM |
| O=C1c2c(O)ccc(O)c2C(=O)c2c(NCCNCCO)ccc(NCCNCCO)c21 [MITOXANTRONE] | – | – | – | IC50 [6]: 0.0374 µM; IC50 (HEK293 [7]): 0.0117 µM; IC50 2008: 0.0078 µM |
| COC(=O)c1cccc(COc2c(-c3ccc(OCCOCCn4cc(CCCc5cn(CCOCCOc6ccc(-c7oc8ccccc8c(=O)c7OCc7cccc(C(=O)OC)c7)cc6)nn5)nn4)cc3)oc3ccccc3c2=O)c1 | > 100 | > 100 | > 100 | – |
| COc1cc2c(cc1OC)CN(CCc1ccc(NC(=O)c3cc(OC)c(OC)cc3NC(=O)c3cnc4ccccc4c3)cc1)CC2 | – | – | – | EC50 [5]: 0.1 µM |
